From PubChem BioAssay (NCI)
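Following 48 hours of exposure in 96-well plates, responses at five concentrations were used to interpolate endpoints linearly. At the GI50, growth is halved. At the TGI there is no net growth.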

Tests used:
Assay in all cases: NCI tumour cell line growth inhibition, 48 h
ACHN renal = tested on: ACHN renal
OVCAR-8 ovarian = tested on: OVCAR-8 ovarian
A498 renal = tested on: A498 renal
OVCAR-3 ovarian = tested on: OVCAR-3 ovarian
RXF 393 renal = tested on: RXF 393 renal
MCF7 breast = tested on: MCF7 breast
SK-MEL-5 melanoma = tested on: SK-MEL-5 melanoma
HOP-62 NSCLC = tested on: HOP-62 NSCLC
K-562 leukemia = tested on: K-562 leukemia
NCI-H460 lung = tested on: NCI-H460 lung
IGROV1 ovarian = tested on: IGROV1 ovarian
HCC-2998 colon = tested on: HCC-2998 colon
HS 578T breast = tested on: HS 578T breast
SW-620 colon = tested on: SW-620 colon
UACC-257 melanoma = tested on: UACC-257 melanoma
HT29 colon = tested on: HT29 colon
DU-145 prostate = tested on: DU-145 prostate
NCI-H23 lung = tested on: NCI-H23 lung
LOX IMVI melanoma = tested on: LOX IMVI melanoma
SF-539 CNS = tested on: SF-539 CNS
SF-268 CNS = tested on: SF-268 CNS
SNB-19 CNS = tested on: SNB-19 CNS
NCI/ADR-RES ovarian = tested on: NCI/ADR-RES ovarian
M14 melanoma = tested on: M14 melanoma
T-47D breast = tested on: T-47D breast
RPMI-8226 leukemia = tested on: RPMI-8226 leukemia
COLO 205 colon = tested on: COLO 205 colon
SK-MEL-2 melanoma = tested on: SK-MEL-2 melanoma
NCI-H522 lung = tested on: NCI-H522 lung
SF-295 CNS = tested on: SF-295 CNS
HOP-92 NSCLC = tested on: HOP-92 NSCLC
NCI-H226 lung = tested on: NCI-H226 lung
UACC-62 melanoma = tested on: UACC-62 melanoma
PC-3 prostate = tested on: PC-3 prostate
OVCAR-5 ovarian = tested on: OVCAR-5 ovarian
OVCAR-4 ovarian = tested on: OVCAR-4 ovarian
U251 CNS = tested on: U251 CNS
BT-549 breast = tested on: BT-549 breast
TK-10 renal = tested on: TK-10 renal
UO-31 renal = tested on: UO-31 renal
HCT-116 colon = tested on: HCT-116 colon
A549 NSCLC = tested on: A549 NSCLC
CCRF-CEM leukemia = tested on: CCRF-CEM leukemia
MDA-MB-231 breast = tested on: MDA-MB-231 breast
HL-60(TB) leukemia = tested on: HL-60(TB) leukemia
786-0 renal = tested on: 786-0 renal
CAKI-1 renal = tested on: CAKI-1 renal
SR leukemia = tested on: SR leukemia
SNB-75 CNS = tested on: SNB-75 CNS
SK-OV-3 ovarian = tested on: SK-OV-3 ovarian
HCT-15 colon = tested on: HCT-15 colon
SK-MEL-28 melanoma = tested on: SK-MEL-28 melanoma
KM12 colon = tested on: KM12 colon
EKVX NSCLC = tested on: EKVX NSCLC
MOLT-4 leukemia = tested on: MOLT-4 leukemia
MDA-MB-435 = tested on: MDA-MB-435

`COc1cccc2c1O/C(=C\c1ccc([N+](=O)[O-])s1)C2=O` gave a GI50 (ACHN renal) of 2.79 µM, a TGI (ACHN renal) greater than 100 µM and a GI50 (OVCAR-8 ovarian) of 2.54 µM. The TGI (OVCAR-8 ovarian) was greater than 24.9 µM, the GI50 (A498 renal) was greater than 100 µM and the TGI (A498 renal) was greater than 100 µM. It also gave a GI50 (OVCAR-3 ovarian) of 1.94 µM, a TGI (OVCAR-3 ovarian) of 4.53 µM and a GI50 (RXF 393 renal) of 2.6 µM. It also gave a TGI (RXF 393 renal) greater than 25.3 µM, a GI50 (MCF7 breast) of 2.04 µM and a TGI (MCF7 breast) greater than 100 µM. It also gave a GI50 (SK-MEL-5 melanoma) of 2.49 µM, a TGI (SK-MEL-5 melanoma) greater than 100 µM and a TGI (HOP-62 NSCLC) greater than 100 µM. The GI50 (K-562 leukemia) was 0.349 µM, the TGI (K-562 leukemia) was 3.05 µM and the GI50 (NCI-H460 lung) was 4.34 µM. It also gave a TGI (NCI-H460 lung) greater than 100 µM, a GI50 (IGROV1 ovarian) of 1.91 µM and a TGI (IGROV1 ovarian) of 5 µM. It also gave a GI50 (HCC-2998 colon) of 4 µM, a TGI (HCC-2998 colon) greater than 100 µM and a GI50 (HS 578T breast) of 2.99 µM. The TGI (HS 578T breast) was greater than 32.1 µM, the GI50 (SW-620 colon) was 0.46 µM and the TGI (SW-620 colon) was 1.75 µM. For the same compound, the GI50 (UACC-257 melanoma) was greater than 100 µM, the TGI (UACC-257 melanoma) was greater than 100 µM and the GI50 (HT29 colon) was 10.3 µM. The TGI (HT29 colon) was 21.9 µM, the GI50 (DU-145 prostate) was greater than 23.9 µM and the TGI (DU-145 prostate) was greater than 100 µM. For the same compound, the GI50 (NCI-H23 lung) was 3.15 µM, the TGI (NCI-H23 lung) was greater than 100 µM and the GI50 (LOX IMVI melanoma) was 3.15 µM. The TGI (LOX IMVI melanoma) was greater than 100 µM, the GI50 (SF-539 CNS) was 3.08 µM and the TGI (SF-539 CNS) was greater than 100 µM. For the same compound, the GI50 (SF-268 CNS) was 2.02 µM, the TGI (SF-268 CNS) was 4.72 µM and the GI50 (SNB-19 CNS) was 4.21 µM. For the same compound, the TGI (SNB-19 CNS) was greater than 100 µM, the GI50 (NCI/ADR-RES ovarian) was 3.92 µM and the TGI (NCI/ADR-RES ovarian) was greater than 100 µM. For the same compound, the GI50 (M14 melanoma) was 3.06 µM, the TGI (M14 melanoma) was greater than 100 µM and the GI50 (T-47D breast) was 1.48 µM. For the same compound, the TGI (T-47D breast) was 7.16 µM, the GI50 (RPMI-8226 leukemia) was 1.7 µM and the TGI (RPMI-8226 leukemia) was greater than 20.6 µM. For the same compound, the GI50 (COLO 205 colon) was 5.15 µM, the TGI (COLO 205 colon) was greater than 100 µM and the GI50 (SK-MEL-2 melanoma) was 1.76 µM. It also gave a TGI (SK-MEL-2 melanoma) of 3.92 µM, a GI50 (NCI-H522 lung) of 0.241 µM and a TGI (NCI-H522 lung) of 0.766 µM. It also gave a GI50 (SF-295 CNS) greater than 90.5 µM, a TGI (SF-295 CNS) greater than 100 µM and a GI50 (HOP-92 NSCLC) of 1.18 µM. For the same compound, the TGI (HOP-92 NSCLC) was 3.42 µM, the GI50 (NCI-H226 lung) was greater than 80.6 µM and the TGI (NCI-H226 lung) was greater than 100 µM. For the same compound, the GI50 (UACC-62 melanoma) was 1.36 µM, the TGI (UACC-62 melanoma) was 3.23 µM and the GI50 (PC-3 prostate) was 1.7 µM. It also gave a TGI (PC-3 prostate) greater than 21.3 µM, a GI50 (OVCAR-5 ovarian) greater than 100 µM and a TGI (OVCAR-5 ovarian) greater than 100 µM. The TGI (OVCAR-4 ovarian) was greater than 100 µM, the GI50 (U251 CNS) was 2.42 µM and the TGI (U251 CNS) was greater than 20.3 µM. For the same compound, the GI50 (BT-549 breast) was 1.68 µM, the TGI (BT-549 breast) was 3.27 µM and the GI50 (TK-10 renal) was 3.16 µM. For the same compound, the TGI (TK-10 renal) was 8.83 µM, the GI50 (UO-31 renal) was 1.08 µM and the TGI (UO-31 renal) was 3.9 µM. For the same compound, the GI50 (HCT-116 colon) was 2.04 µM, the TGI (HCT-116 colon) was greater than 100 µM and the GI50 (A549 NSCLC) was 3.29 µM. The TGI (A549 NSCLC) was greater than 100 µM, the GI50 (CCRF-CEM leukemia) was 1.25 µM and the TGI (CCRF-CEM leukemia) was greater than 23.4 µM. It also gave a GI50 (MDA-MB-231 breast) of 1.25 µM, a TGI (MDA-MB-231 breast) of 2.92 µM and a GI50 (HL-60(TB) leukemia) of 2.53 µM. It also gave a TGI (HL-60(TB) leukemia) greater than 100 µM, a GI50 (786-0 renal) greater than 20.6 µM and a TGI (786-0 renal) greater than 100 µM. The GI50 (CAKI-1 renal) was greater than 100 µM, the TGI (CAKI-1 renal) was greater than 100 µM and the GI50 (SR leukemia) was 0.279 µM. It also gave a TGI (SR leukemia) of 2.93 µM, a GI50 (SNB-75 CNS) of 2.33 µM and a TGI (SNB-75 CNS) greater than 32.5 µM. It also gave a GI50 (SK-OV-3 ovarian) greater than 83.9 µM, a TGI (SK-OV-3 ovarian) greater than 100 µM and a GI50 (HCT-15 colon) of 0.474 µM. It also gave a TGI (HCT-15 colon) of 2.34 µM.

Work on `Cc1ccnc(NC(=S)Nc2ccc([N+](=O)[O-])cc2)c1` yielded a TGI (ACHN renal) greater than 100 µM, a TGI (OVCAR-8 ovarian) greater than 100 µM and a TGI (SK-MEL-28 melanoma) greater than 100 µM. For the same compound, the TGI (RXF 393 renal) was greater than 100 µM, the TGI (MCF7 breast) was greater than 100 µM and the TGI (SK-MEL-5 melanoma) was greater than 100 µM. The TGI (HOP-62 NSCLC) was greater than 100 µM, the TGI (K-562 leukemia) was greater than 100 µM and the TGI (NCI-H460 lung) was greater than 100 µM. For the same compound, the TGI (IGROV1 ovarian) was greater than 100 µM, the TGI (HCC-2998 colon) was greater than 100 µM and the TGI (HS 578T breast) was 94.8 µM. For the same compound, the TGI (SW-620 colon) was greater than 100 µM, the TGI (UACC-257 melanoma) was greater than 100 µM and the TGI (HT29 colon) was greater than 100 µM. It also gave a TGI (DU-145 prostate) greater than 100 µM, a TGI (NCI-H23 lung) greater than 100 µM and a TGI (LOX IMVI melanoma) greater than 100 µM. For the same compound, the TGI (SF-539 CNS) was 85.4 µM, the TGI (SF-268 CNS) was greater than 100 µM and the TGI (SNB-19 CNS) was greater than 100 µM. It also gave a TGI (NCI/ADR-RES ovarian) greater than 100 µM, a TGI (M14 melanoma) greater than 100 µM and a TGI (T-47D breast) greater than 100 µM. It also gave a TGI (RPMI-8226 leukemia) greater than 100 µM, a TGI (SK-MEL-2 melanoma) greater than 100 µM and a TGI (SF-295 CNS) greater than 100 µM. The TGI (HOP-92 NSCLC) was greater than 100 µM, the TGI (NCI-H226 lung) was greater than 100 µM and the TGI (UACC-62 melanoma) was greater than 100 µM. The TGI (PC-3 prostate) was greater than 100 µM, the TGI (OVCAR-4 ovarian) was greater than 100 µM and the TGI (KM12 colon) was greater than 100 µM. It also gave a TGI (EKVX NSCLC) greater than 100 µM, a TGI (MOLT-4 leukemia) greater than 100 µM and a TGI (U251 CNS) greater than 100 µM. For the same compound, the TGI (BT-549 breast) was greater than 100 µM, the TGI (TK-10 renal) was greater than 100 µM and the TGI (UO-31 renal) was greater than 100 µM. The TGI (HCT-116 colon) was greater than 100 µM, the TGI (CCRF-CEM leukemia) was greater than 100 µM and the TGI (HL-60(TB) leukemia) was greater than 100 µM. The TGI (786-0 renal) was greater than 100 µM, the TGI (SR leukemia) was greater than 100 µM and the TGI (MDA-MB-435) was greater than 100 µM. It also gave a TGI (SNB-75 CNS) greater than 100 µM, a TGI (SK-OV-3 ovarian) greater than 100 µM and a TGI (HCT-15 colon) greater than 100 µM.
